Experimental data published in patent publication US20250319032A1, “PHARMACEUTICAL COMPOSITIONS OF RIBOCICLIB” (Novartis AG, priority 2024, published 2025).

Key:
[1] = DMP433 (N-nitroso-ribociclib) content in ribociclib base (B10) and ribociclib succinate (B12, drug substance) batches and process experiments, LC-MS/MS or HPLC-HRMS; format: physicochemical; conditions: for DMP433 [ppm] LOQ (0.0625 ppm) / DMP433 [ppm], result in brackets (extrapolation, estimate of actual value below LOQ): ribociclib base (LEE011 B10)
Description: The method of testing for the presence and/or total amount of nitrosamines (such as the presence and/or total amount of N-nitroso-ribociclib in free or salt form) that is used in the methods of the invention may be any method which allows for the detection of nitrosamines in a composition. For example, the method may involve the Griess test described above. In such a method, the nitrosamines may be first denitrosated (e.g., by photolysis) to form a nitrite, which is then detected in the Griess test. Alternatively, the method may include high performance liquid chromatography (HPLC)- and/or gas chromatography (GC)-mass spectroscopy. An example of a method of testing for the presence and amount of nitrosamines (namely N-nitroso-ribociclib) is provided herein as Example 14. […]
2.7. […] Dissolve the substance using vortex and fill to volume with solvent (50% MeOH). • 3. Filter through 0.2 μm PVDF (polyvinylidene difluoride) or PTFE (polytetrafluoroethylene) filter into a HPLC amber vial, discard the first 0.5 ml.
A calibration curve for DMP433 is created, using calibration standard solutions L1-L6, and expressing the relationship between responses (peak areas) and standard concentrations (ng/ml). For L1, the average of 6 injections is used. Linear regression is weighed with 1/amount. […]

[2] = Nitrite content (ion chromatography; LC-FLD with DAN derivatisation; Griess test) in drug substance, intermediates, reagents, solvents, filters, excipients; format: physicochemical; parameters: Nitrite content T0 (enhanced method): unit: ppm; conditions: for Nitrite NAP method (ppm) / Nitrite NAT enhanced sample prep. (ppm): ribociclib succinate drug substance batches at release
Description: The method of testing for the presence and/or total amount of nitrites that is used in the methods of the invention may be any method which allows for the detection and/or quantitation of nitrites in a composition. For example, the method may be the Griess test. The Griess test allows for the detection and analysis of nitrite by the formation of a red-pink colour upon treatment of a nitrite-containing sample with the Griess reagent. The Griess reagent consists of two components in an acidic solution: an aniline derivative and a coupling agent. The most common arrangements use sulfanilamide and N-(1-naphthyl)ethylenediamine. For example 0.2% N-(1-naphthyl)ethylenediamine dihydrochloride and 2% sulfanilamide in 5% phosphoric acid may be used as a Griess reagent. Other aniline derivatives that may be used in a Griess reagent include sulfanilic acid, nitroaniline, and p-aminoacetophenone.
The Griess test involves two subsequent reactions, as shown in the scheme below. When the aniline derivative (e.g., sulfanilamide) is added, the nitrite ion reacts with it in the Griess diazotization reaction to form a diazonium salt, which then reacts with N-(1-naphthyl)ethylenediamine in an azo-coupling reaction, forming a pink-red azo-dye. Using a spectrophotometer, the nitrite concentration can then be quantitatively detected.
Additionally purified water; e.g. Milli Q • 2.
• 10 mM KH2PO4 Weigh accurately about 1.361 g of KH2PO4 into a 1 L volumetric flask, dissolve it in approximately 950 mL of additionally purified water and adjust the pH to 8.0 (with 2.7 M NaOH). Make up to the mark with additionally purified water. • 0.62 M HCl Add a few millilitres (e.g. 20 mL) of additionally purified water to a 200 mL volumetric flask, add 10.280 mL of concentrated HCl, mix and make up to the mark with additionally purified water. • 2.7 M NaOH Weigh accurately about 1.092 g of NaOH pellets into a 10 mL volumetric flask and dissolve it in additionally purified water. Cool to room temperature and make up to the mark with the same solvent. • Reagent DAN Weigh accurately about 5 mg of 2,3-diaminophthalene into a 100 mL volumetric flask and dissolve it with the solvent (methanol/water 1:1 (v/v)). Dilute up to the mark and ensure visual full dissolution. Use an amberglass flask. • Mobile phase A Mix 950 mL of 10 mM KH2PO4 solution (pH=8) and add 50 mL methanol. • Mobile phase B Methanol. • Solvent Methanol/water 1:1 (v/v), e.g. mix 2000 mL of additionally purified water and 2000 mL methanol.
• Instrument: HPLC with FLR detector; e.g. Waters Arc or equivalent • Column: C18 50×4.6 mm, 2.5 μm, e.g. XBridge C18 2.5 μm, 4.650 mm or equivalent
• Notes It is recommended to wear additional protective equipment (face mask and gloves) during weighing. • It is recommended to wash the column with 50% methanol after the analysis (example of preparation: mix 500 mL methanol and 500 m1 of additionally purified water). • It is recommended to rinse the injector with solvent after each injection. • All glassware and tools should be rinsed with additionally purified water before use. It is not recommended to leave the solutions open for a longer time before measurement. • Blank solution 1 Transfer 1 mL of solvent into a HPLC vial and perform derivatization as described below. • Blank solution 2 Transfer 10 mL of solvent into a single use glass vial and mix it on a magnetic stirrer for 30 min. Transfer the solution into a 5 mL centrifuge tube and centrifuge for 10 min at 12000 rpm. […] Fill up to the mark with solvent and mix. • (Cnitrite≈0.0005 mg/mL) • Comparison solution Transfer 10 mL of nitrite stock solution into a 500 mL volumetric flask. • (2 parallels) Fill up to the mark with solvent and mix. • Transfer 1 mL solution into a HPLC vial and perform the derivatization as described below. • (Cnitrite≈100 ppb) • Sample solution Accurately weigh about 1000 mg of the sample into a glass vial for single use and add 10 mL of solvent.

Row | SMILES | Nitrite NAT enhanced sample prep. (ppm) ([2]; manufacturer Raybow - DS04) | Nitrite NAT enhanced sample prep. (ppm) ([2]; manufacturer Raybow - DS05) | also measured
1 | CN(C)C(=O)c1cc2cnc(Nc3ccc(N4CCNCC4)cn3)nc2n1C1CCCC1.O=C(O)CCC(=O)O [Batch B699003AA] | – | – | DMP433 content (corrected value) at release ([1]; drug substance DS06 used for tablet core experiments and binary mixtures): 0.655 ppm
2 | CN(C)C(=O)c1cc2cnc(Nc3ccc(N4CCNCC4)cn3)nc2n1C1CCCC1 [Batch B704194] | – | – | DMP433 [ppm] LOQ (0.0625 ppm) [1]: LOQ; DMP433 [ppm], result in brackets (extrapolation, estimate of actual value below LOQ) [1]: 0.005 ppm
3 | CN(C)C(=O)c1cc2cnc(Nc3ccc(N4CCNCC4)cn3)nc2n1C1CCCC1 [Batch B704196] | – | – | DMP433 [ppm] LOQ (0.0625 ppm) [1]: LOQ; DMP433 [ppm], result in brackets (extrapolation, estimate of actual value below LOQ) [1]: 0.019 ppm
4 | CN(C)C(=O)c1cc2cnc(Nc3ccc(N4CCNCC4)cn3)nc2n1C1CCCC1.O=C(O)CCC(=O)O [Batch B711440] | – | – | Nitrite NAP method (ppm) [2]: 0.1 ppm; Nitrite NAT enhanced sample prep. (ppm) [2]: 0.9 ppm
5 | CN(C)C(=O)c1cc2cnc(Nc3ccc(N4CCNCC4)cn3)nc2n1C1CCCC1.O=C(O)CCC(=O)O [Batch B711866] | – | – | Nitrite NAP method (ppm) [2]: 0.2 ppm; Nitrite NAT enhanced sample prep. (ppm) [2]: <0.1 ppm
6 | CN(C)C(=O)c1cc2cnc(Nc3ccc(N4CCNCC4)cn3)nc2n1C1CCCC1.O=C(O)CCC(=O)O [Batch B711867] | – | – | Nitrite content T0 (enhanced method) ([2]; drug substance manufactured at Menges, T0): <0.1; Nitrite NAP method (ppm) [2]: 0.1 ppm; Nitrite NAT enhanced sample prep. (ppm) [2]: 0.1 ppm
7 | CN(C)C(=O)c1cc2cnc(Nc3ccc(N4CCNCC4)cn3)nc2n1C1CCCC1.O=C(O)CCC(=O)O [Batch B711868] | – | – | Nitrite NAT enhanced sample prep. (ppm) [2]: <0.1 ppm
8 | CN(C)C(=O)c1cc2cnc(Nc3ccc(N4CCNCC4)cn3)nc2n1C1CCCC1.O=C(O)CCC(=O)O [DS (B699003AA)] | – | – | Nitrite content ([2]; component (DS or MgST) used in binary mixtures): DS 0.1 ppm
9 | CC(C)O [IPA] | – | – | Nitrite in IPA ([2]; IPA used in resin loading experiments): 1.6 ppb
10 | CN(C)C(=O)c1cc2cnc(Nc3ccc(N4CCNCC4)cn3)nc2n1C1CCCC1.O=C(O)CCC(=O)O [RIBOCICLIB SUCCINATE 833268A144] | <0.1 ppm | <0.1 ppm | –
11 | CN(C)C(=O)c1cc2cnc(Nc3ccc(N4CCNCC4)cn3)nc2n1C1CCCC1.O=C(O)CCC(=O)O [RIBOCICLIB SUCCINATE 833268A193] | 0.1 ppm | 0.1 ppm | –
12 | CN(C)C(=O)c1cc2cnc(Nc3ccc(N4CCNCC4)cn3)nc2n1C1CCCC1.O=C(O)CCC(=O)O [RIBOCICLIB SUCCINATE 833268A196] | 1.1 ppm | 0.1 ppm | –
13 | CN(C)C(=O)c1cc2cnc(Nc3ccc(N4CCNCC4)cn3)nc2n1C1CCCC1.O=C(O)CCC(=O)O [RIBOCICLIB SUCCINATE 833268A198] | 0.1 ppm | 0.1 ppm | –
14 | CN(C)C(=O)c1cc2cnc(Nc3ccc(N4CCNCC4)cn3)nc2n1C1CCCC1.O=C(O)CCC(=O)O [RIBOCICLIB SUCCINATE 833268A201] | 0.1 ppm | 0.1 ppm | –
15 | CN(C)C(=O)c1cc2cnc(Nc3ccc(N4CCNCC4)cn3)nc2n1C1CCCC1.O=C(O)CCC(=O)O [RIBOCICLIB SUCCINATE 833268A202] | 0.1 ppm | 0.1 ppm | –
16 | CN(C)C(=O)c1cc2cnc(Nc3ccc(N4CCNCC4)cn3)nc2n1C1CCCC1.O=C(O)CCC(=O)O [RIBOCICLIB SUCCINATE 833268A207] | 0.1 ppm | 0.1 ppm | –
17 | CN(C)C(=O)c1cc2cnc(Nc3ccc(N4CCNCC4)cn3)nc2n1C1CCCC1.O=C(O)CCC(=O)O [RIBOCICLIB SUCCINATE 833268A211] | <0.1 ppm | – | –
18 | CN(C)C(=O)c1cc2cnc(Nc3ccc(N4CCNCC4)cn3)nc2n1C1CCCC1.O=C(O)CCC(=O)O [RIBOCICLIB SUCCINATE 833268A212] | <0.1 ppm | – | –
19 | CN(C)C(=O)c1cc2cnc(Nc3ccc(N4CCNCC4)cn3)nc2n1C1CCCC1.O=C(O)CCC(=O)O [RIBOCICLIB SUCCINATE 833268R008] | 0.3 ppm | – | –
20 | CN(C)C(=O)c1cc2cnc(Nc3ccc(N4CCNCC4)cn3)nc2n1C1CCCC1.O=C(O)CCC(=O)O [RIBOCICLIB SUCCINATE 833268R009] | <0.1 ppm | – | –
21 | CN(C)C(=O)c1cc2cnc(Nc3ccc(N4CCNCC4)cn3)nc2n1C1CCCC1.O=C(O)CCC(=O)O [RIBOCICLIB SUCCINATE 833268R010] | <0.1 ppm | – | –
22 | CN(C)C(=O)c1cc2cnc(Nc3ccc(N4CCNCC4)cn3)nc2n1C1CCCC1.O=C(O)CCC(=O)O [RIBOCICLIB SUCCINATE 833268R011] | <0.1 ppm | – | –
23 | CN(C)C(=O)c1cc2cnc(Nc3ccc(N4CCNCC4)cn3)nc2n1C1CCCC1.O=C(O)CCC(=O)O [RIBOCICLIB SUCCINATE 833268R012] | <0.1 ppm | – | –
24 | CN(C)C(=O)c1cc2cnc(Nc3ccc(N4CCNCC4)cn3)nc2n1C1CCCC1.O=C(O)CCC(=O)O [RIBOCICLIB SUCCINATE 833268R013] | <0.1 ppm | – | –
25 | CN(C)C(=O)c1cc2cnc(Nc3ccc(N4CCNCC4)cn3)nc2n1C1CCCC1.O=C(O)CCC(=O)O [RIBOCICLIB SUCCINATE 833268R014] | <0.1 ppm | – | –
26 | CN(C)C(=O)c1cc2cnc(Nc3ccc(N4CCNCC4)cn3)nc2n1C1CCCC1.O=C(O)CCC(=O)O [RIBOCICLIB SUCCINATE 833268R015] | <0.1 ppm | – | –
27 | CN(C)C(=O)c1cc2cnc(Nc3ccc(N4CCNCC4)cn3)nc2n1C1CCCC1.O=C(O)CCC(=O)O [RIBOCICLIB SUCCINATE 833268R016] | <0.1 ppm | – | –
28 | CN(C)C(=O)c1cc2cnc(Nc3ccc(N4CCNCC4)cn3)nc2n1C1CCCC1.O=C(O)CCC(=O)O [RIBOCICLIB SUCCINATE 834325A015] | – | 0.1 ppm | –
29 | CN(C)C(=O)c1cc2cnc(Nc3ccc(N4CCNCC4)cn3)nc2n1C1CCCC1.O=C(O)CCC(=O)O [RIBOCICLIB SUCCINATE 834325A016] | – | 0.1 ppm | –
